Laboratory results published in patent publication US9023789B2, “Amylin analogs and pharmaceutical compositions thereof” (Novo Nordisk A/S, priority 2012, dated 2015).
Numbered stars: 1 amine (or outer) side, 2 acyl side, 3 side chain; on linkers, the order of the positions; unused ones are H or OH. Bridge positions count the residues as written; N and C are the ends. Side chains are listed from the residue outwards. Peptide text beside a SMILES is read from it. * marks the point of attachment. C20 diacid = O=C(O)CCCCCCCCCCCCCCCCCCC(=O)*; γGlu = O=C(O)[C@H](CCC(=O)[*:2])N[*:1]; AEEA = NCCOCCOCC(=O)O

Key:
[1] = ASSAY (III) ThT fibrillation assay for physical stability; type: physicochemical
Summary of the method: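 Formulations with 1 μM ThT, pH adjusted as required, incubated at 37 °C with 960 rpm orbital shaking; fluorescence (ex 444/em 485 nm) read every 20 min. Fibrillation reported as mean ThT fluorescence ± SD of 4–8 replicates at time points; polypeptide concentration measured by reverse-phase HPLC before and after, post-centrifugation.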

Sprague Dawley (SD) rats = assay: ASSAY (I) efficacy testing on appetite (food intake) using an ad libitum fed rat model; type: in vivo; conditions: rat
Summary of the method: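 Ad libitum fed SD rats (200–250 g) were housed singly on a reversed light/dark cycle and given one 0.01–3 mg/kg dose ip, po or sc just before lights-off, with 5–8 per dose group plus vehicle controls. Food intake was recorded hourly for 7 h, then at 24 h and sometimes 48 h; Grubbs outliers were excluded.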

ThT pH 4.0 lag time (h) [1] [h] | SMILES | Food intake reduction 0-24 h 30 nmol/kg (%) (Sprague Dawley (SD) rats; 0-24 h) | Food intake reduction 24-48 h 30 nmol/kg (%) (Sprague Dawley (SD) rats; 24-48 h) | Food intake reduction 0-24 h 3 nmol/kg (%) (Sprague Dawley (SD) rats; 3 nmol/kg, 0-24 h) | Food intake reduction 24-48 h 3 nmol/kg (%) (Sprague Dawley (SD) rats; 3 nmol/kg, 24-48 h)
45 | CC[C@H](C)[C@H](NC(=O)[C@H](C)NC(=O)CNC(=O)[C@H](Cc1ccccc1)NC(=O)[C@H](CC(N)=O)NC(=O)[C@@H]1CCCN1C(=O)[C@H](CO)NC(=O)[C@H](CO)NC(=O)[C@H](Cc1c[nH]cn1)NC(=O)[C@H](CCCNC(=N)N)NC(=O)[C@H](CC(C)C)NC(=O)[C@H](Cc1ccccc1)NC(=O)[C@H](CC(N)=O)NC(=O)[C@H](C)NC(=O)[C@H](CC(C)C)NC(=O)[C@H](CCCNC(=N)N)NC(=O)[C@H](CCC(N)=O)NC(=O)[C@@H](NC(=O)[C@H](C)NC(=O)[C@@H]1CSSC[C@H](NC(=O)[C@H](CCCNC(=N)N)NC(=O)[C@@H](N)CCCCNC(=O)COCCOCCNC(=O)CC[C@H](NC(=O)CCCCCCCCCCCCCCCCCCC(=O)O)C(=O)O)C(=O)N[C@@H](CC(N)=O)C(=O)N[C@@H]([C@@H](C)O)C(=O)N[C@@H](C)C(=O)N[C@@H]([C@@H](C)O)C(=O)N1)[C@@H](C)O)C(=O)N1CCC[C@H]1C(=O)N[C@@H](CO)C(=O)N[C@@H](CO)C(=O)N[C@H](C(=O)N[C@@H](CC(N)=O)C(=O)N[C@H](C(=O)NCC(=O)N[C@@H](CO)C(=O)N[C@@H](Cc1c[nH]cn1)C(=O)N[C@H](C(=O)N[C@@H](Cc1ccc(O)cc1)C(N)=O)[C@@H](C)O)C(C)C)[C@@H](C)O [Example 45] (H-K([AEEA-γGlu-C20 diacid])RCNTATCATQRLANFLRHSSPNFGAIPSSTNVGSHTY-NH2; disulfide 3-8 (inferred)) | 27 | 3 |  | 
26 | CC[C@H](C)[C@H](NC(=O)[C@H](C)NC(=O)CNC(=O)[C@H](Cc1ccccc1)NC(=O)[C@H](CC(N)=O)NC(=O)[C@@H]1CCCN1C(=O)[C@H](CO)NC(=O)[C@H](CO)NC(=O)[C@H](Cc1c[nH]cn1)NC(=O)[C@H](CCCNC(=N)N)NC(=O)[C@H](CC(C)C)NC(=O)[C@H](Cc1ccccc1)NC(=O)[C@H](CC(N)=O)NC(=O)[C@H](C)NC(=O)[C@H](CC(C)C)NC(=O)[C@H](CCCNC(=N)N)NC(=O)[C@H](CCC(N)=O)NC(=O)[C@@H](NC(=O)[C@H](C)NC(=O)[C@@H]1CSSC[C@H](NC(=O)[C@H](CCCCN)NC(=O)CC[C@H](NC(=O)CCCCCCCCCCCCCCCCCCC(=O)O)C(=O)O)C(=O)N[C@@H](CC(N)=O)C(=O)N[C@@H]([C@@H](C)O)C(=O)N[C@@H](C)C(=O)N[C@@H]([C@@H](C)O)C(=O)N1)[C@@H](C)O)C(=O)N1CCC[C@H]1C(=O)N[C@@H](CO)C(=O)N[C@@H](CO)C(=O)N[C@H](C(=O)N[C@@H](CC(N)=O)C(=O)N[C@H](C(=O)NCC(=O)N[C@@H](Cc1c[nH]cn1)C(=O)N[C@@H](CC(N)=O)C(=O)N[C@H](C(=O)N[C@@H](Cc1ccc(O)cc1)C(N)=O)[C@@H](C)O)C(C)C)[C@@H](C)O [Example 40] | 51 | 26 |  | 
24 | CC[C@H](C)[C@H](NC(=O)[C@H](C)NC(=O)CNC(=O)[C@H](Cc1ccccc1)NC(=O)[C@H](CC(N)=O)NC(=O)[C@@H]1CCCN1C(=O)[C@H](CO)NC(=O)[C@H](CO)NC(=O)[C@H](Cc1c[nH]cn1)NC(=O)[C@H](CCCNC(=N)N)NC(=O)[C@H](CC(C)C)NC(=O)[C@H](Cc1ccccc1)NC(=O)[C@H](Cc1c[nH]cn1)NC(=O)[C@H](C)NC(=O)[C@H](CC(C)C)NC(=O)[C@H](CCCNC(=N)N)NC(=O)[C@H](CCC(N)=O)NC(=O)[C@@H](NC(=O)[C@H](C)NC(=O)[C@@H]1CSSC[C@H](NC(=O)[C@@H](N)CCCCNC(=O)COCCOCCNC(=O)CC[C@H](NC(=O)CCCCCCCCCCCCCCCCCCC(=O)O)C(=O)O)C(=O)N[C@@H](CC(N)=O)C(=O)N[C@@H]([C@@H](C)O)C(=O)N[C@@H](C)C(=O)N[C@@H]([C@@H](C)O)C(=O)N1)[C@@H](C)O)C(=O)N1CCC[C@H]1C(=O)N[C@@H](CO)C(=O)N[C@@H](CO)C(=O)N[C@H](C(=O)N[C@@H](CC(N)=O)C(=O)N[C@H](C(=O)NCC(=O)N1CCC[C@H]1C(=O)N[C@@H](CC(N)=O)C(=O)N[C@H](C(=O)N[C@@H](Cc1ccc(O)cc1)C(N)=O)[C@@H](C)O)C(C)C)[C@@H](C)O [Example 68] (H-K([AEEA-γGlu-C20 diacid])CNTATCATQRLAHFLRHSSPNFGAIPSSTNVGPNTY-NH2; disulfide 2-7) | 33 | 0 |  | 
45 | CC[C@H](C)[C@H](NC(=O)[C@H](C)NC(=O)CNC(=O)[C@H](Cc1ccccc1)NC(=O)[C@H](CC(N)=O)NC(=O)[C@@H]1CCCN1C(=O)[C@H](CO)NC(=O)[C@H](CO)NC(=O)[C@H](Cc1c[nH]cn1)NC(=O)[C@H](CCCNC(=N)N)NC(=O)[C@H](CC(C)C)NC(=O)[C@H](Cc1ccccc1)NC(=O)[C@H](CCC(=O)O)NC(=O)[C@H](C)NC(=O)[C@H](CC(C)C)NC(=O)[C@H](CCCNC(=N)N)NC(=O)[C@H](CCC(N)=O)NC(=O)[C@@H](NC(=O)[C@H](C)NC(=O)[C@@H]1CSSC[C@H](NC(=O)[C@H](CCCCN)NC(=O)CC[C@H](NC(=O)CCCCCCCCCCCCCCCCCCC(=O)O)C(=O)O)C(=O)N[C@@H](CC(N)=O)C(=O)N[C@@H]([C@@H](C)O)C(=O)N[C@@H](C)C(=O)N[C@@H]([C@@H](C)O)C(=O)N1)[C@@H](C)O)C(=O)N1CCC[C@H]1C(=O)N[C@@H](CO)C(=O)N[C@@H](CO)C(=O)N[C@H](C(=O)N[C@@H](CC(N)=O)C(=O)N[C@H](C(=O)NCC(=O)N1CCC[C@H]1C(=O)N[C@@H](CC(N)=O)C(=O)N[C@H](C(=O)N[C@@H](Cc1ccc(O)cc1)C(N)=O)[C@@H](C)O)C(C)C)[C@@H](C)O [Example 32] ({C20 diacid-γGlu}-KCNTATCATQRLAEFLRHSSPNFGAIPSSTNVGPNTY-NH2; disulfide 2-7) | 62 | 7 |  | 
27 | CC[C@H](C)[C@H](NC(=O)[C@H](C)NC(=O)CNC(=O)[C@H](Cc1ccccc1)NC(=O)[C@H](CC(N)=O)NC(=O)[C@@H]1CCCN1C(=O)[C@H](CO)NC(=O)[C@H](CO)NC(=O)[C@H](Cc1c[nH]cn1)NC(=O)[C@H](CCCNC(=N)N)NC(=O)[C@H](CC(C)C)NC(=O)[C@H](Cc1ccccc1)NC(=O)[C@H](CC(N)=O)NC(=O)[C@H](C)NC(=O)[C@H](CC(C)C)NC(=O)[C@H](CCCNC(=N)N)NC(=O)[C@H](CCC(N)=O)NC(=O)[C@@H](NC(=O)[C@H](C)NC(=O)[C@@H]1CSSC[C@H](NC(=O)[C@@H](N)CCCCNC(=O)COCCOCCNC(=O)CC[C@H](NC(=O)CCCCCCCCCCCCCCCCCCC(=O)O)C(=O)O)C(=O)N[C@@H](CC(N)=O)C(=O)N[C@@H]([C@@H](C)O)C(=O)N[C@@H](C)C(=O)N[C@@H]([C@@H](C)O)C(=O)N1)[C@@H](C)O)C(=O)N1CCC[C@H]1C(=O)N[C@@H](CO)C(=O)N[C@@H](CO)C(=O)N[C@H](C(=O)N[C@@H](CC(N)=O)C(=O)N[C@H](C(=O)NCC(=O)N[C@@H](CO)C(=O)N[C@@H](CCCNC(=N)N)C(=O)N[C@H](C(=O)N[C@@H](Cc1ccc(O)cc1)C(N)=O)[C@@H](C)O)C(C)C)[C@@H](C)O [Example 38] | 47 | 0 |  | 
45 | CC[C@H](C)[C@H](NC(=O)[C@H](C)NC(=O)CNC(=O)[C@H](Cc1ccccc1)NC(=O)[C@H](CC(N)=O)NC(=O)[C@@H]1CCCN1C(=O)[C@H](CO)NC(=O)[C@H](CO)NC(=O)[C@H](Cc1c[nH]cn1)NC(=O)[C@H](CCCNC(=N)N)NC(=O)[C@H](CC(C)C)NC(=O)[C@H](Cc1ccccc1)NC(=O)[C@H](CC(N)=O)NC(=O)[C@H](C)NC(=O)[C@H](CC(C)C)NC(=O)[C@H](CCCNC(=N)N)NC(=O)[C@H](CCC(N)=O)NC(=O)[C@@H](NC(=O)[C@H](C)NC(=O)[C@@H]1CSSC[C@H](NC(=O)[C@H](CCCNC(=N)N)NC(=O)CNC(=O)CC[C@H](NC(=O)CCCCCCCCCCCCCCCCCCC(=O)O)C(=O)O)C(=O)N[C@@H](CC(N)=O)C(=O)N[C@@H]([C@@H](C)O)C(=O)N[C@@H](C)C(=O)N[C@@H]([C@@H](C)O)C(=O)N1)[C@@H](C)O)C(=O)N1CCC[C@H]1C(=O)N[C@@H](CO)C(=O)N[C@@H](CO)C(=O)N[C@H](C(=O)N[C@@H](CC(N)=O)C(=O)N[C@H](C(=O)NCC(=O)N[C@@H](CO)C(=O)N[C@@H](Cc1c[nH]cn1)C(=O)N[C@H](C(=O)N[C@@H](Cc1ccc(O)cc1)C(N)=O)[C@@H](C)O)C(C)C)[C@@H](C)O [Example 47] ({C20 diacid-γGlu}-GRCNTATCATQRLANFLRHSSPNFGAIPSSTNVGSHTY-NH2; disulfide 3-8) | 51 | 0 |  | 
45 | CC[C@H](C)[C@H](NC(=O)[C@H](C)NC(=O)CNC(=O)[C@H](Cc1ccccc1)NC(=O)[C@H](CC(N)=O)NC(=O)[C@@H]1CCCN1C(=O)[C@H](CO)NC(=O)[C@H](CO)NC(=O)[C@H](Cc1c[nH]cn1)NC(=O)[C@H](CCCNC(=N)N)NC(=O)[C@H](CC(C)C)NC(=O)[C@H](Cc1ccccc1)NC(=O)[C@H](CCC(=O)O)NC(=O)[C@H](C)NC(=O)[C@H](CC(C)C)NC(=O)[C@H](CCCNC(=N)N)NC(=O)[C@H](CCC(N)=O)NC(=O)[C@@H](NC(=O)[C@H](C)NC(=O)[C@@H]1CSSC[C@H](NC(=O)[C@@H](N)CCCCNC(=O)CC[C@H](NC(=O)CCCCCCCCCCCCCCCCCCC(=O)O)C(=O)O)C(=O)N[C@@H](CC(N)=O)C(=O)N[C@@H]([C@@H](C)O)C(=O)N[C@@H](C)C(=O)N[C@@H]([C@@H](C)O)C(=O)N1)[C@@H](C)O)C(=O)N1CCC[C@H]1C(=O)N[C@@H](CO)C(=O)N[C@@H](CO)C(=O)N[C@H](C(=O)N[C@@H](CC(N)=O)C(=O)N[C@H](C(=O)NCC(=O)N1CCC[C@H]1C(=O)N[C@@H](Cc1c[nH]cn1)C(=O)N[C@H](C(=O)N[C@@H](Cc1ccc(O)cc1)C(N)=O)[C@@H](C)O)C(C)C)[C@@H](C)O [Example 118] (H-K([γGlu-C20 diacid])CNTATCATQRLAEFLRHSSPNFGAIPSSTNVGPHTY-NH2; disulfide 2-7) | 77 | 30 | 43 | 1
